Test results reported in PMC9841523 (Journal of Medicinal Chemistry, 2022).
Read-outs that look alike come from different tables or passages of the source.

Legend:
Type in all cases: cell-based
[1] = tested on: p-P70S6K Thr389; assay: AlphaLISA/MSD analysis of S6K phosphorylation in MDA-MB-468 cells; conditions: MDA-MB-468 cells, read-out: pS6K IC50
Experimental: (§1) Cell culture and reagents. Cells were obtained from ATCC, grown in appropriate medium supplemented with 10% fetal bovine serum and 1% penicillin/streptomycin and maintained at 37 °C in a humidified incubator at 5% CO 2.
(§2) AlphaLISA and MesoScale Discovery (MSD) analysis of 4EBP1, S6K and AKT phosphorylation. mTOR substrate phosphorylation in MDA-MB-468 cells was assayed using AlphaLISA SureFire Ultra kits for p4EBP1 Thr37/46, p-P70S6K Thr389 and p-AKT1/2/3 Ser473 (PerkinElmer), and MSD Multi-Array Assay Systems for Phospho-4EBP1 (Thr37/46) and Phospho-AKT (Ser473) (MSD). Cells were seeded at 25,000 cells per well and exposed the next day to serial three-fold dilutions of compounds in complete medium with 0.1% dimethylsulfoxide (DMSO). After indicated incubation times, cells were lysed and AlphaLISA or MSD performed according to the manufacturers’ protocols. Samples were read using an EnVision Multilabel Plate Reader (PerkinElmer) using standard AlphaLISA settings or using an MSD plate reader. Data were plotted as a function of logM [compound] with a sigmoidal concentration response (variable slope) model fitted to the data to estimate the inhibitor half-maximum effective concentration (EC 50) in Prism 7 (GraphPad). Alternatively, results were analyzed as percentage of control in which 0% was set as signal from 1 μM Torin1 and 100% was set as the mean of DMSO wells on each plate, and inhibitor EC 50 was estimated as described

[2] = tested on: 4EBP1 T37/T46 phosphorylation (mTORC1); assay: AlphaLISA/MSD analysis of 4EBP1 phosphorylation in MDA-MB-468 cells; conditions: for IC50: read-out: p4EBP1 IC50
Experimental: as §1, §2

[3] = tested on: AKT S473 phosphorylation (mTORC2); assay: AlphaLISA/MSD analysis of AKT phosphorylation in MDA-MB-468 cells
Experimental: as §1, §2

[4] = Homo sapiens, MDA-MB-468 cells, read-out: pAKT IC50
[5] = up to a maximal test concentration of 1 μM

Row | Molecule | IC50 ([1]; Homo sapiens) [nM] | IC50 ([2]; Homo sapiens, MDA-MB-468 cells) [nM] | IC50 [3, 4] [nM] | further results
1 | CO[C@H]1C[C@@H]2CC[C@@H](C)[C@@](O)(O2)C(=O)C(=O)N2CCCC[C@H]2C(=O)O[C@H]([C@H](C)C[C@@H]2CC[C@@H](OCCCCc3cn(CCOCCOCCOCCOCCOCCOCCC(=O)NCCCCn4nc(-c5ccc6oc(N)nc6c5)c5c(N)ncnc54)nn3)[C@H](OC)C2)CC(=O)[C@H](C)/C=C(\C)[C@@H](O)[C@@H](OC)C(=O)[C@H](C)C[C@H](C)/C=C/C=C/C=C/1C [compound 27] | 0.26 | 1.1 | 5.2 | 
2 | CO[C@H]1C[C@@H]2CC[C@@H](C)[C@@](O)(O2)C(=O)C(=O)N2CCCC[C@H]2C(=O)O[C@H]([C@H](C)C[C@@H]2CC[C@@H](OC(=O)NCCOCCOCCOCCOCCOCCOCCOCCOCCC(=O)NCCS(=O)(=O)c3ccc(C(=O)N4CCOc5ccc(-c6ccc(N)nc6)cc5C4)c(C)c3F)[C@H](OC)C2)CC(=O)[C@H](C)/C=C(\C)[C@@H](O)[C@@H](OC)C(=O)[C@H](C)C[C@H](C)/C=C/C=C/C=C/1C [compound 31] | 0.23 | 0.7 | 2.9 | 
3 | CO[C@H]1C[C@@H]2CC[C@@H](C)[C@@](O)(O2)C(=O)C(=O)N2CCCC[C@H]2C(=O)O[C@H]([C@H](C)C[C@@H]2CC[C@@H](OCCCCc3cn(CCOCCOCCOCCOCCOCCOCCOCCOCCC(=O)N4CCC(Cn5nc(-c6ccc7oc(N)nc7c6)c6c(N)ncnc65)CC4)nn3)[C@H](OC)C2)CC(=O)[C@H](C)/C=C(\C)[C@@H](O)[C@@H](OC)C(=O)[C@H](C)C[C@H](C)/C=C/C=C/C=C/1C [compound 22] | 0.16 | 0.67 | 1.8 | 
4 | CO[C@H]1C[C@@H]2CC[C@@H](C)[C@@](O)(O2)C(=O)C(=O)N2CCCC[C@H]2C(=O)O[C@H]([C@H](C)C[C@@H]2CC[C@@H](OCCCCc3cn(CCOCCOCCOCCOCCOCCC(=O)NCCCCn4nc(-c5ccc6oc(N)nc6c5)c5c(N)ncnc54)nn3)[C@H](OC)C2)CC(=O)[C@H](C)/C=C(\C)[C@@H](O)[C@@H](OC)C(=O)[C@H](C)C[C@H](C)/C=C/C=C/C=C/1C [compound 28] | 0.37 | 25 | 33 | 
5 | CO[C@H]1C[C@@H]2CC[C@@H](C)[C@@](O)(O2)C(=O)C(=O)N2CCCC[C@H]2C(=O)O[C@H]([C@H](C)C[C@@H]2CC[C@@H](OCCCCc3cn(CCOCCOCCOCCOCCOCCOCCOCCOCCC(=O)NCCCCn4nc(-c5cnc6[nH]ccc6c5)c5c(N)ncnc54)nn3)[C@H](OC)C2)CC(=O)[C@H](C)/C=C(\C)[C@@H](O)[C@@H](OC)C(=O)[C@H](C)C[C@H](C)/C=C/C=C/C=C/1C [compound 20] | 0.22 | 1 | 17 | 
6 | CO[C@H]1C[C@@H]2CC[C@@H](C)[C@@](O)(O2)C(=O)C(=O)N2CCCC[C@H]2C(=O)O[C@H]([C@H](C)C[C@@H]2CC[C@@H](OC(=O)NCCOCCOCCOCCOCCOCCOCCOCCOCCC(=O)N3CCc4cc(Cn5nc(-c6ccc7oc(N)nc7c6)c6c(N)ncnc65)ccc4C3)[C@H](OC)C2)CC(=O)[C@H](C)/C=C(\C)[C@@H](O)[C@@H](OC)C(=O)[C@H](C)C[C@H](C)/C=C/C=C/C=C/1C [compound 30] | 0.19 | 0.42 | 4.7 | 
7 | BGT226 [compound 7, reference compound] |  |  |  | IC50 [1]: 0.27 nM; IC50 ([2]; MDA-MB-468 cells): 4.4 nM; selectivity (mTORC1/mTORC2 ratio) ([2]; pAKT IC50 versus p4EBP1 IC50, MDA-MB-468 cells): 0.3; IC50 ([3]; MDA-MB-468 cells, read-out: pAKT IC50): 1.4 nM
8 | CO[C@@H](C[C@@H]1CC[C@@H](C)[C@](O)(C(=O)C(=O)N2CCCC[C@H]2C(=O)O)O1)/C(C)=C/C=C/C=C/[C@@H](C)C[C@@H](C)C(=O)[C@H](OC)[C@H](O)/C(C)=C/[C@@H](C)C(=O)/C=C\[C@H](C)C[C@@H]1CC[C@@H](OCCCCc2cn(CCOCCOCCOCCOCCOCCOCCOCCOCCC(=O)NCCCCn3nc(-c4ccc5oc(N)nc5c4)c4c(N)ncnc43)nn2)[C@H](OC)C1 [compound 32] | 59 | 180 | 450 | 
9 | CO[C@H]1C[C@@H]2CC[C@@H](C)[C@@](O)(O2)C(=O)C(=O)N2CCCC[C@H]2C(=O)O[C@H]([C@H](C)C[C@@H]2CC[C@@H](OCCCCc3cn(CCOCCOCCOCCOCCOCCOCCOCCOCCC(=O)N4CCc5cc(Cn6nc(-c7ccc8oc(N)nc8c7)c7c(N)ncnc76)ccc5C4)nn3)[C@H](OC)C2)CC(=O)[C@H](C)/C=C(\C)[C@@H](O)[C@@H](OC)C(=O)[C@H](C)C[C@H](C)/C=C/C=C/C=C/1C [compound 21] | 0.13 | 0.44 | 8.8 | 
10 | COc1ccc(-c2ccc3ncc4c(c3c2)n(C)c(=O)n4-c2ccc(N3CCN(C(=O)CCOCCOCCOCCOCCOCCOCCOCCOCCn4cc(CCCCO[C@@H]5CC[C@@H](C[C@@H](C)[C@@H]6CC(=O)[C@H](C)/C=C(\C)[C@@H](O)[C@@H](OC)C(=O)[C@H](C)C[C@H](C)/C=C/C=C/C=C(\C)[C@@H](OC)C[C@@H]7CC[C@@H](C)[C@@](O)(O7)C(=O)C(=O)N7CCCC[C@H]7C(=O)O6)C[C@H]5OC)nn4)CC3)c(C(F)(F)F)c2)cn1 [compound 19] | 0.02 | 0.06 | 0.52 | 
11 | CO[C@H]1C[C@@H]2CC[C@@H](C)[C@@](O)(O2)C(=O)C(=O)N2CCCC[C@H]2C(=O)O[C@H]([C@H](C)C[C@@H]2CC[C@@H](OCCOCc3cn(CCOCCOCCOCCOCCOCCOCCOCCOCCC(=O)NCCCCn4nc(-c5cc6cc(O)ccc6[nH]5)c5c(N)ncnc54)nn3)[C@H](OC)C2)CC(=O)[C@H](C)/C=C(\C)[C@@H](O)[C@@H](OC)C(=O)[C@H](C)C[C@H](C)/C=C/C=C/C=C/1C [compound 17, reference compound] | 0.47 | 2.5 | 24 | 
12 | CO[C@H]1C[C@@H]2CC[C@@H](C)[C@@](O)(O2)C(=O)C(=O)N2CCCC[C@H]2C(=O)O[C@H]([C@H](C)C[C@@H]2CC[C@@H](OCCCCc3cn(CCOCCOCCOCCOCCOCCOCCOCCOCCC(=O)NCCCCn4nc(-c5ccc6oc(N)nc6c5)c5c(N)ncnc54)nn3)[C@H](OC)C2)CC(=O)[C@H](C)/C=C(\C)[C@@H](O)[C@@H](OC)C(=O)[C@H](C)C[C@H](C)/C=C/C=C/C=C/1C [compound 16] | 0.42 | 1.1 | 3.1 | 
13 | CO[C@H]1C[C@@H]2CC[C@@H](C)[C@@](O)(O2)C(=O)C(=O)N2CCCC[C@H]2C(=O)O[C@H]([C@H](C)C[C@@H]2CC[C@@H](OCCCCc3cn(CCOCCOCCOCCOCCOCCOCCC(=O)NCCCCn4nc(-c5cnc6[nH]ccc6c5)c5c(N)ncnc54)nn3)[C@H](OC)C2)CC(=O)[C@H](C)/C=C(\C)[C@@H](O)[C@@H](OC)C(=O)[C@H](C)C[C@H](C)/C=C/C=C/C=C/1C [compound 24] | 0.24 | 31 | 110 | reduction in mTORC1 p4EBP1 activity on going from 8 PEG units to 6 PEG units ([2]; versus the 8 PEG analog): > 30 fold
14 | CO[C@H]1C[C@@H]2CC[C@@H](C)[C@@](O)(O2)C(=O)C(=O)N2CCCC[C@H]2C(=O)O[C@H]([C@H](C)C[C@@H]2CC[C@@H](OCCCCc3cn(CCOCCOCCOCCOCCOCCOCCOCCOCCC(=O)NCCCCn4nc(-c5ccc6oc(N)nc6c5)c5c(N(C)C)ncnc54)nn3)[C@H](OC)C2)CC(=O)[C@H](C)/C=C(\C)[C@@H](O)[C@@H](OC)C(=O)[C@H](C)C[C@H](C)/C=C/C=C/C=C/1C [compound 23] | 0.29 | > 1000 | > 1000 | p4EBP1 inhibition [2, 5]: inactive; pAKT inhibition [3, 5]: inactive
15 | CO[C@H]1C[C@@H]2CC[C@@H](C)[C@@](O)(O2)C(=O)C(=O)N2CCCC[C@H]2C(=O)O[C@H]([C@H](C)C[C@@H]2CC[C@@H](OCCOCc3cn(CCOCCOCCOCCOCCOCCOCCOCCOCCC(=O)NCCCCn4nc(-c5ccc6oc(N)nc6c5)c5c(N)ncnc54)nn3)[C@H](OC)C2)CC(=O)[C@H](C)/C=C(\C)[C@@H](O)[C@@H](OC)C(=O)[C@H](C)C[C@H](C)/C=C/C=C/C=C/1C [compound 3, RapaLink-1, reference compound] | 0.93 | 1.7 | 6.7 | 
16 | CO[C@H]1C[C@@H]2CC[C@@H](C)[C@@](O)(O2)C(=O)C(=O)N2CCCC[C@H]2C(=O)O[C@H]([C@H](C)C[C@@H]2CC[C@@H](OCCCCc3cn(CCOCCOCCOCCOCCOCCOCCOCCOCCC(=O)NCCCCn4nc(-c5cc6cc(O)ccc6[nH]5)c5c(N)ncnc54)nn3)[C@H](OC)C2)CC(=O)[C@H](C)/C=C(\C)[C@@H](O)[C@@H](OC)C(=O)[C@H](C)C[C@H](C)/C=C/C=C/C=C/1C [compound 18] | 0.28 | 1.4 | 18 | selectivity for mTORC1 over mTORC2 ([2]; pAKT versus p4EBP1 inhibition, MDA-MB-468 cells): approximately 13 fold
17 | Nc1ncnc2c1c(-c1cnc3[nH]ccc3c1)nn2C1CCCC1 [compound 8, PP121, reference compound] |  |  |  | IC50 ([3]; Homo sapiens, MDA-MB-468, read-out: pAKT IC50): 100 nM
